In test [1] the test system is bovine cartilage explants. The experiment in a line: Load-induced chondrocyte apoptosis (TUNEL) in bovine cartilage explants. It counts as cell-based. The source says:
Cartilage explants. Macroscopically normal weight bearing portions of freshly slaughtered skeletally mature bovine femoral condyles were selected from animals between 2 and 6 years of age (Animal Technologies, Austin, Tex.). Only joints without visible signs of degeneration or aging were selected. Using sterile techniques, full thickness cartilage was separated from underlying subchondral bone with a scalpel and 5 mm diameter cylindrical explants, ranging from 1 to 1.8 mm in height, cored out using a dermal punch (Acuderm, Inc., Ft. Lauderdale, Fla.). Explants taken from adjacent sites were used as matched controls for each group in each experiment to minimize variation in cartilage response due to differences in thickness and location within the joint. Each explant was weighed and allowed to stabilize at 37° C. and 5% CO2 for 48 hours in 1 ml of Dulbecco's modified Eagle's medium (DMEM) supplemented with 10% fetal bovine serum (FBS), L-glutamine, antibiotics and 50 μg/ml ascorbic acid.
(§1) Loading apparatus and procedure. […] Stress and strain data were recorded during the test.
Apoptosis detection. […] TUNEL positive cells emit a bright green fluorescence while TUNEL negative cells display an orange color due to propidium iodide counterstaining. […] Cells in all areas were counted and divided into TUNEL positive or TUNEL negative. […]

Test [2] relates to bovine cartilage explants. The experiment in a line: Glycosaminoglycan (GAG) release assay, mechanically injured bovine cartilage explants. It counts as cell-based. Particulars: loaded bovine explants treated with caspase inhibitor. How it is done: Glycosaminoglycan release assay. To estimate GAG depletion and release, the concentration of sulfated glycosaminoglycans was measured using […] (DMMB) as a monitor of spectrophotometric changes which occur during the formation of the sulfated GAG dye complex (Farndale, et al. (1986) Biochim. Biophys. Acts. 883, 173-177, Goldberg, et al. (1993) Agents Actions 39 Spec No, C163-C165). For GAG content measurement, samples were digested in papain and collagenase and the concentration of sulfated GAG measured using DMMB. To generate a standard curve, chondroitin-6-sulfate (Sigma, St. Louis, Mo.) was used at concentrations between 1 and 200 μg/ml. GAG released in media was normalized to the pooled mean GAG content of Control (uninjured) cartilage explants and expressed as a percentage of total GAG content.
Inhibition of apoptosis. To determine whether apoptosis could be prevented by caspase inhibition, 12 explants were loaded at 23 MPa (High Load) and cultured for 48 hours. […] Percent apoptosis and GAG release in media was measured as described above.
Release of sulfated glycosaminoglycans (GAG) was analyzed as a measure of the extent of damage sustained by the explant. […] GAG depletion was assessed by dimethylene blue binding assays of the culture supernatants and this correlated with the reduced of safranin O staining of the cartilage sections.

The subject of another test is human cartilage explants. Description: Load-induced chondrocyte apoptosis (TUNEL) in human cartilage explants. It counts as cell-based. Particulars: loaded explants (30% strain) cultured in 100 mM z-VAD.fmk after injury, 96 hours post-injury.
Description: Cartilage explants. Macroscopically normal tibial and femoral articular surfaces were selected from human cadaver donors between 18 and 45 years of age. Using sterile techniques, full thickness cartilage was separated from underlying subchondral bone with a scalpel. 5 mm diameter cylindrical explants, ranging from 2 to 2.8 mm in thickness, cored out using a dermal punch (Acuderm, Inc., Ft. Lauderdale, Fla.). Explants taken from adjacent sites were used as matched controls for each group in each experiment to minimize variation in cartilage response due to differences in thickness and location within the joint. […]
as §1
Caspase inhibition. […] Percentage apoptosis was measured at 96 hours post-injury in three groups (control, loaded, and loaded with z-VAD.fmk) with ten explants each in two separate experiments.
Apoptosis detection. […] This was detected by immunohistochemical staining with M30 (Cytodeath, Boehringer Mannheim, Eugene, Oreg.), a monoclonal antibody that recognizes the neo-epitope exposed in early apoptosis.
Chondrocyte apoptosis after mechanical injury to human cartilage. […] GAG release and percentage of cells undergoing apoptosis were measured at 96 hours after injury. […]

The test system of test [3] is femoral and tibial articular cartilage. The experiment in a line: Intraarticular injection of caspase inhibitor in rabbits with anterior cruciate ligament transection (ACLT). It counts as in vivo, New Zealand White rabbits. How it is done: Intraarticular injection of caspase inhibitor in rabbits with ligament transection. A pilot study was performed to assess feasibility and efficacy of caspase inhibition in vivo. Eight New Zealand White rabbits were divided into anterior cruciate ligament transection (ACLT) and ACLT+caspase inhibitor (CI) groups. Both groups underwent bilateral ACLT. The ACLT+CI group was treated with intra-articular injections of 25 μg of z-VAD.fmk three times per week for six weeks while the control group received saline injections. Rabbits were euthanised at six weeks and femoral and tibial articular cartilage evaluated by India ink staining and histologic Mankin grading after Safranin-O stain.

The source of these data is patent publication US20090186827A1, “Process of inhibiting cell death in injured cartilage” (The Scripps Research Institute, priority 2001, published 2009).

Structures are written as SMILES. “Also recorded” adds a separate entry of the source. Where a SMILES comes first, the peptide text is derived from it. The star is where a group is joined. Cbz = O=C(OCc1ccccc1)*; CH2F = FC*

As to `COC(=O)CC(NC(=O)C(C)NC(=O)C(NC(=O)OCc1ccccc1)C(C)C)C(=O)CF` (stereo not drawn) [z-VAD.fmk, benzyloxycarbonyl-Val-Ala-Asp (OMe) fluoromethylketone] (Cbz-Val-Ala-Asp(OMe)-CH2F; configuration not given here), the “reduction in the apoptosis rate” value in test [1] (high and intermediate load groups) is listed as above 50%. The “chondrocyte apoptosis after mechanical injury (in words)” value in test [1] (loaded bovine explants, z-VAD.fmk 100 μM, 48 hours) is “reduced chondrocyte apoptosis”. Also, the “GAG release / GAG depletion (in words)” value in test [2] is “reduction in GAG release; also recorded: normalization of the GAG depletion”. Moreover, the “reduction in apoptotic rates” value in the test on human cartilage explants is 50%. Moreover, in test [3] (25 μg intra-articular three times per week for six weeks, bilateral ACLT), the “reduction of the size of the cartilage lesions (surface area, India ink stained femoral condyles)” value is on record as around 80%. Besides, the “cartilage lesions under India ink examination (in words)” value in test [3] (ACLT+CI group, six weeks) was “lesions that were smaller in area”. Moreover, in test [3] (ACLT+CI group, six weeks, 4/8 knees), the “knees with Mankin grade 5 or higher” value is listed as 50%.
